The text below walks through data of US5008268A, “2-aminopyrimidinone derivatives” (Janssen Pharmaceutica N.V., priority 1989, dated 1991).

Each structure is given as a SMILES string.

Type in all cases: in vivo
The test system of one assay is peripheral serotonin. The experiment in a line: Combined apomorphine, tryptamine and norepinephrine test in rats: tryptamine-induced hyperaemia of the ears. As to conditions: Rattus norvegicus, dose protecting half of tested animals from peripheral serotonin-induced phenomena, in particular hyperaemia of the ears. The source says:
(§1) Int. Pharmacodyn. Ther. 251, 39-51 (1981).
Pharmacodyn, 227, 238-253 (1977). Said test provides an empirical evaluation of the relative specificity with which drugs may effect particular neurotransmitters centrally (CNS) as well as peripherally. […] The ED50 values of the tested compounds are listed in column 3 of table 4 and represent the dose in mg per kg bodyweight which protects half of the tested animals from peripheral serotonin-induced phenomena, in particular hyperaemia of the ears.

Assay [1] has as its system compound 48/80-induced gastric lesions. The assay can be described thus: Protection of rats from compound 48/80-induced gastric lesions (antiserotoninergic). The conditions noted are these: Rattus norvegicus, dose at which stomach distention and glandular-area lesions are completely absent in half of the rats.
Description: as §1
The ED50 values of the tested compounds are listed in the second column of table 4. Said ED50 values are the doses in mg per kg bodyweight at which the distention of the stomach as well as lesions in the glandular area of the stomach are completely absent in half of the test rats.

In assay [2] the test system is compound 48/80-induced lethality. The assay can be described thus: Protection of rats from compound 48/80-induced lethality (antihistaminic). The conditions noted are these: Rattus norvegicus, dose protecting 50% of tested animals against compound 48/80-induced lethality.
Description: as §1
The ED50 values of the tested compounds of formula (I) are listed in the first column of table 4. Said ED50 values are the values in mg per kg bodyweight at which the tested compounds protect 50% of the tested animals against compound 48/80-induced lethality.

Broadly, the ED50 is the midpoint of the dose-response relation. As for `Cc1ccc(Cn2c(NC3CCN(CCc4c(C)nc(NCc5ccccc5)n(C)c4=O)CC3)nc3cccnc32)o1` [Compound 3], the 50% effective dose (ED50) in the assay with peripheral serotonin came out at 0.005 mg/kg; in assay [1], 0.08 mg/kg.

With `Cc1nc(N)n(C)c(=O)c1CCN1CCC(Nc2nc3ccccc3n2Cc2ccc(F)cc2)CC1` [Compound 7], the figures for the ED50 (in the assay with peripheral serotonin; in assay [1]) were 0.01 mg/kg and 0.02 mg/kg, respectively.

As to `Cc1nc(N)n(C)c(=O)c1CCN1CCC(Cc2nc3ccccc3n2Cc2ccc(F)cc2)CC1` [Compound 11, 2-amino-5-[2-[4-[[1-[(4-fluorophenyl)methyl]-1H-benzimidazol-2-yl]-methyl]-1-piperidinyl]ethyl]-3,6-dimethyl-4(3H)pyrimidinone], the ED50 in assay [2] was determined as 0.02 mg/kg; in the assay with peripheral serotonin, 0.005 mg/kg; in assay [1], 0.16 mg/kg.

With `Cc1nc(N)n(C)c(=O)c1CCN1CCC(Nc2nc3ccccc3n2Cc2ccc(CO)o2)CC1` [Compound 15, 2-amino-5-[2-[4-[[1-[[5-hydroxymethyl-2-furanyl]methyl]-1H-benzimidazol-2-yl]amino]-1-piperidinyl]ethyl]-3,6-dimethyl-4(3H)-pyrimidinone], the ED50 was 0.02 mg/kg in assay [2], 0.002 mg/kg in the assay with peripheral serotonin and 0.005 mg/kg in assay [1].

Regarding `Cc1nc(N)n(C)c(=O)c1CCN1CCC(Nc2nc3cccnc3n2Cc2ccc(CO)o2)CC1` [Compound 16], the ED50 in assay [2] was 0.01 mg/kg; with peripheral serotonin it was 0.005 mg/kg; in assay [1], 0.16 mg/kg.

`CNc1nc(C)c(CCN2CCC(Nc3nc4ccccc4n3Cc3ccc(CO)o3)CC2)c(=O)n1C` [Compound 17, 5-[2-[4-[[1-[[5-(hydroxymethyl)-2-furanyl]methyl]-1H-benzimidazol-2-yl]amino]-1-piperidinyl]ethyl]-3,6-dimethyl-2(methylamino)-4(3H)-pyrimidinone]: the ED50 came to 0.02 mg/kg in assay [2], 0.002 mg/kg with peripheral serotonin and 0.01 mg/kg in assay [1].

As to `Cc1nc(NCc2ccccn2)n(C)c(=O)c1CCN1CCC(Cc2nc3ccccc3n2Cc2ccc(F)cc2)CC1` [Compound 21], the figures for the ED50 (in assay [2]; in the assay on peripheral serotonin; in assay [1]) were 0.04 mg/kg, 0.01 mg/kg and 0.08 mg/kg, respectively.

In the case of `CCNc1nc(C)c(CCN2CCC(Nc3nc4ccccc4n3Cc3ccc(CO)o3)CC2)c(=O)n1C` [Compound 29], the figures for the ED50 (in assay [2]; in the assay on peripheral serotonin; in assay [1]) were 0.08 mg/kg, 0.005 mg/kg and 0.16 mg/kg, respectively.

In the case of `CCOCCNc1nc(C)c(CCN2CCC(Nc3nc4ccccc4n3Cc3ccc(CO)o3)CC2)c(=O)n1C` [Compound 30], the figures for the ED50 (in assay [2]; with peripheral serotonin; in assay [1]) were 0.04 mg/kg, 0.02 mg/kg and 0.02 mg/kg, respectively.

`CCCCNc1nc(C)c(CCN2CCC(Nc3nc4cccnc4n3Cc3ccc(C)o3)CC2)c(=O)n1C` [Compound 34]: the 50% effective dose (ED50) was 0.04 mg/kg in assay [2], 0.02 mg/kg in the assay with peripheral serotonin and 0.08 mg/kg in assay [1].

On to `Cc1nc(NCc2ccccn2)n(C)c(=O)c1CCN1CCC(Nc2nc3ccccc3n2Cc2ccc(CO)o2)CC1` [Compound 39], for which the ED50 was 0.08 mg/kg in assay [2], 0.005 mg/kg in the assay with peripheral serotonin and 0.04 mg/kg in assay [1].

With `CCCNc1nc(C)c(CCN2CCC(Nc3nc4ccccc4n3Cc3ccc(CO)o3)CC2)c(=O)n1C` [Compound 43, 5-[2-[4-[[1-[[5-(hydroxymethyl)-2-furanyl]methyl]-1H-benzimidazol-2-yl]amino]-1-piperidinyl]ethyl]-3,6-dimethyl-2-(propylamino)-4(3H)-pyrimidinone], the ED50 in assay [2] came out at 0.08 mg/kg; in the assay with peripheral serotonin, 0.005 mg/kg; in assay [1], 0.04 mg/kg.

Turning to `Cc1nc2n(C)c(C)cn2c(=O)c1CCN1CCC(Cc2nc3ccccc3n2Cc2ccc(F)cc2)CC1` [Compound 50], the figures for the ED50 (in assay [2]; in the assay on peripheral serotonin; in assay [1]) were 0.04 mg/kg, 0.02 mg/kg and 0.16 mg/kg, respectively.

`CC1=NN(C)c2nc(C)c(CCN3CCC(Cc4nc5ccccc5n4Cc4ccc(F)cc4)CC3)c(=O)n2C1` [Compound 58]: the ED50 in assay [2] amounted to 0.04 mg/kg; in the assay on peripheral serotonin it was 0.02 mg/kg; in assay [1], 0.16 mg/kg.

In the case of `Cc1ccc(Cn2c(NC3CCN(CCc4c(C)nc5n(C)nc(C)n5c4=O)CC3)nc3cccnc32)o1` [Compound 67], the values for the ED50 (in assay [2]; in the assay on peripheral serotonin; in assay [1]) were 0.04 mg/kg, 0.08 mg/kg and 0.08 mg/kg, respectively.

For `Cc1nc2n(C)ccn2c(=O)c1CCN1CCC(Nc2nc3ccccc3n2Cc2ccc(CO)o2)CC1` [Compound 68], the ED50 (in the assay on peripheral serotonin; in assay [1]) was 0.04 mg/kg in each case.

On to `Cc1nc2n(C)c(C)cn2c(=O)c1CCN1CCC(Nc2nc3ccccc3n2Cc2ccc(CO)o2)CC1` [Compound 71], for which the ED50 in the assay with peripheral serotonin amounted to 0.01 mg/kg; in assay [1] it was 0.04 mg/kg.

Regarding `Cc1nc2n(C)ccn2c(=O)c1CCN1CCC(Cc2nc3ccccc3n2Cc2ccc(CO)o2)CC1` [Compound 79], the ED50 in the assay on peripheral serotonin was 0.02 mg/kg; in assay [1], 0.04 mg/kg.

On to `Cc1nc2ccccn2c(=O)c1CCN1CCC(Nc2nc3cccnc3n2Cc2ccco2)CC1` [reference, 3-[2-[4-[[3-(2-furanylmethyl)-3H-imidazo[4,5-b]pyridin-2-yl]amino]-1-piperidinyl]ethyl]-2-methyl-4H-pyrido[1,2-a]pyrimidin-4-one, reference compound], for which the ED50 in assay [2] stood at 0.08 mg/kg; in the assay with peripheral serotonin, 0.63 mg/kg; in assay [1], 0.63 mg/kg.
